These results are taken from patent US4673747A, “Aminoalkylphenoxy derivatives” (Ikeda Mohando Co., Ltd., priority 1984, dated 1987).

Molecules are shown by their SMILES. Read-outs that look alike come from different tables or passages of the source.

In series [1] the test system is Gastric acid secretion induced by histamine. Kind of series: Inhibition effect on gastric acid secretion induced by histamine in pylorus ligated rat (subcutaneous). The series is classed as in vivo, rat (male Wistar). The settings on record: read-out: Secretion of Gastric Acid in Rat, Inhibition Rate (%); for inhibition in vivo at 0.2 mg/kg: 0.2 mg/kg SC. As for the experimental part:
A male Wistar rat having a body weight of about 160 g and which had not fed for 24 hours was anesthetized by an intraperitonea dose of 1.2 g/kg of uretane. After ligating of pylorus and esophagus, the gaster anterior was incised and fitted with a double polyethylene cannula. The wall of the stomach was rinsed with 5 ml of saline at 30 minute intervals, and the quantities of gastric acid contained in each rinsing solution were measured by titration.
The basal acid secretion was initially measured three times, and then 0.2 mg/kg or 0.5 mg/kg of each of the compounds of this invention was administered subcutaneously and 3 mg/kg of histamine was administered subcutaneously after the lapse of an additional 30 minutes.
The quantity of gastric acid secreated after the operation was measured continuously for 3 hours. Within that measurement interval, three time points at which the increase in acid secretion reached a maximum level were selected, and the average quantity of gastric acid secreted at those time points was taken as the increase in acid secretion, which was compared with the increase in acid secretion of the control group to calculate the percent inhibition for secretion of gastric acid. [formula] (The result was shown as the average value of five runs.)

Series [2] in a line: Acute toxicity test on mice dosed orally. Also on record: species or system mouse (male ddy). The settings on record: mouse, in vivo, po, P.O., 14 days observation, read-out: Median lethal dose (LD50). As for the experimental part:
Male ddy mice each having a body weight of about 22 g and which had not eaten for 8 hours were orally dosed with the test samples, and the general symptoms and fatalities were observed from the time immediately following the administration to 14 days after the administration.
The median lethal dose (LD50) was calculated in accordance with the Litchfield and Wilcoxon Method.

Series [3] relates to Gastric acid secretion induced by histamine. Kind of series: Inhibitory effect of intraduodenally administered compounds on gastric acid secretion induced by histamine in rat. The series is classed as in vivo, rat (male Wistar). The settings on record: for ED50: 0.5 h, read-out: Median effective dose (ED50), Gastric Acid Secretion; for Efficacy Ratio relative to Cimetidine (Cimetidine = 1): from ED50; for ED50 value: times as effective as Cimetidine (activity ratio): text discussing Table 2.

Another series deals with T1, Histamine H2-Receptor (Cavia porcellus, UniProt P47747).
T1 construct: from tissue; host or cells: isolated atrium of male Hartley guinea pig
Also on record: species or system guinea pig (male Hartley). The note with it: isolated guinea pig atrium; negative logarithm of molar concentration; heart beats, histamine dose-response; read-out: Antagonistic Action against Histamine H2-Receptor (pA2) Determined by Using Atrium isolated from Guinea Pig (converted). On the procedure:
A male Hartley guinea pig having a body weight of about 400 g was killed by cervical dislocation, and the artrium thereof was isolated and was suspended in an organ bath containing 50 ml of a modified Ringer solution and subjected to a tension of 1 g. The number of heart beats under such condition was recorded using a polygraph.
Initially, from 1×10^-7 mol to 3×10^-4 mol of histamine was allowed to act accumulatively to depict the curve of the dosage-reaction relationship. Likewise, the curve of the dosage of histamine-reaction relationship was depicted in the presence of 5×10^-7 mol to 1×10^-6 mol of the test sample which was injected 3 minutes before. The negative logarithm (pA2) of the molar concentration of the test sample required for moving the curve obtained by single administration of histamine parallel to the right side by a two-times concentration was calculated.

The mark [4] stands for this setting: 0.5 mg/kg SC, histamine 3 mg/kg SC, average of five runs, * p<0.05, ** p<0.01 vs control group.
Setting [5] is: intraduodenal, 30 minutes before SC histamine, rat.
The mark [6] stands for this setting: histamine 3 mg/kg SC, average of five runs, * p<0.05, ** p<0.01 vs control group.

T1 sequence (P47747 whole entry): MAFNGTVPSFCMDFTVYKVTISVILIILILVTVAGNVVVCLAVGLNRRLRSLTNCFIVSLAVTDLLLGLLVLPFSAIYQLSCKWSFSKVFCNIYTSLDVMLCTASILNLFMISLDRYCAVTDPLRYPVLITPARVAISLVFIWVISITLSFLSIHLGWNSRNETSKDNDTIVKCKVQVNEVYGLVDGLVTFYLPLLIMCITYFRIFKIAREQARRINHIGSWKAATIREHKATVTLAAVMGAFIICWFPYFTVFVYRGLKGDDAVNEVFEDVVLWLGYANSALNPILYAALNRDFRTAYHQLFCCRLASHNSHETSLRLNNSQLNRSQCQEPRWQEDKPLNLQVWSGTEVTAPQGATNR

As for `CN/C(=N/CCSCc1nc[nH]c1C)NC#N` [Cimetidine, reference compound], in series [1] (sc), the inhibition in vivo at 0.5 mg/kg is 41%. Moreover, the LD50 (commonly the dose expected to kill half of the subjects tested) at 336 h in series [2] turned out to be 3300 mg/kg. Besides, the ED50 (commonly the dose at which the effect has come halfway, by size or by number of responders) in series [3] (Rattus norvegicus) amounted to 7.2 mg/kg.
For `Nc1c(NC/C=C\COc2cccc(CN3CCCCC3)c2)c(=O)c1=O` [Ex. 2, 1-amino-2-[4-<3-(1-piperidinomethyl)phenoxy>-cis-2-butenylamino]-1-cyclobuten-3,4-dione], the inhibition in vivo at 0.5 mg/kg in series [1] (setting [4]) was determined as 98%. Also, the LD50 at 336 h in series [2] was greater than 1500 mg/kg. For the same molecule, the median effective dose (ED50) in series [3] (setting [5]) worked out at 0.046 mg/kg. Moreover, in series [3] (intraduodenal, rat), the “Efficacy Ratio relative to Cimetidine (Cimetidine = 1)” value (“Efficacy Ratio relative to Cimetidine” below) is listed as 156.5 and the “ED50 value: times as effective as Cimetidine (activity ratio)” value (shortened to “ED50 value: times … (activity ratio)”) is “about 157 times”. Besides, the Kb on Histamine H2-Receptor is 0.0631 µM.
Regarding `CNc1c(NC/C=C\COc2cccc(CN3CCCCC3)c2)c(=O)c1=O` [Ex. 3, 1-methylamino-2-[4-<3-(1-piperidinomethyl)phenoxy>-cis-2-butenylamino]-cyclobuten-3,4-dione], the inhibition in vivo at 0.5 mg/kg in series [1] (setting [4]) stood at 79%. The LD50 at 336 h in series [2] was greater than 1500 mg/kg. Also, in series [3] (setting [5]), the ED50 stood at 0.036 mg/kg. In series [3] (intraduodenal, rat), the “Efficacy Ratio relative to Cimetidine” value is recorded as 200.0 and the “ED50 value: times … (activity ratio)” value is roughly 200 times. Besides, the Kb on Histamine H2-Receptor is 0.309 µM.
As for `Nc1n[nH]c(=O)nc1NC/C=C\COc1cccc(CN2CCCCC2)c1` [Ex. 9, 6-amino-5-[4-<3-(1-piperidinomethyl)phenoxy>-cis-2-butenylamino]-1,2,4-triazin-3-one], the inhibition in vivo at 0.5 mg/kg in series [1] (setting [4]) is 96%. For the same molecule, the LD50 at 336 h in series [2] was 1200 mg/kg. Besides, at Histamine H2-Receptor, the Kb was 0.186 µM.
Turning to `CNc1n[nH]c(=O)nc1NC/C=C\COc1cccc(CN2CCCCC2)c1` [Ex. 10, 6-methylamino-5-[4-<3-(1-piperidinomethyl)phenoxy>-cis-2-butenylamino]-1,2,4-triazin-3-one], the inhibition in vivo at 0.5 mg/kg in series [1] (setting [4]) worked out at 103%. The LD50 at 336 h in series [2] is greater than 1500 mg/kg. In series [3] (setting [5]), the ED50 is 8 mg/kg. Besides, the “Efficacy Ratio relative to Cimetidine” value in series [3] (intraduodenal, rat) is 0.9. Also, the Kb at Histamine H2-Receptor is 0.219 µM.
Taken in the same sequence, the figures for `Nc1cc(NC/C=C\COc2cccc(CN3CCCCC3)c2)nc(=O)[nH]1` [Ex. 13, 4-amino-6-[4-<3-(1-piperidinomethyl)phenoxy>-cis-2-butenylamino]-(1H)-pyrimidin-2-one] were 91%, greater than 1500 mg/kg, 0.52 mg/kg, 13.8 and 0.0832 µM.
Consider `CNc1n[s+]([O-])nc1NC/C=C\COc1cccc(CN2CCCCC2)c1` (stereo not drawn) [Ex. 16, 3-methylamino-4-[4-<3-(1-piperidinomethyl)phenoxy>-cis-2-butenylamino]-1,2,5-thiadiazole-1-oxide], for which the inhibition in vivo at 0.5 mg/kg in series [1] (setting [4]) was 98%. The LD50 at 336 h in series [2] is greater than 1500 mg/kg. Moreover, the 50% effective dose (ED50) in series [3] (setting [5]) is 0.04 mg/kg. In addition, in series [3] (intraduodenal, rat), the “Efficacy Ratio relative to Cimetidine” value is recorded as 180.0 and the “ED50 value: times … (activity ratio)” value was roughly 180 times. Also, on Histamine H2-Receptor, the Kb was 2.4 µM.
With `CNc1nnc(NC/C=C\COc2cccc(CN3CCCCC3)c2)s1` [Ex. 28, 2-methylamino-5-[4-<3-(1-piperidinomethyl)-phenoxy>-cis-2-butenylamino]-1,3,4-thiadiazole], in series [1] (setting [6]), the inhibition in vivo at 0.2 mg/kg was determined as 75%. In addition, the ED50 in series [3] (setting [5]) amounted to 0.62 mg/kg. The “Efficacy Ratio relative to Cimetidine” value in series [3] (intraduodenal, rat) is 11.6. In addition, the Kb on Histamine H2-Receptor was 4.68 µM.
Taken in the same sequence, the figures for `CC1CCCCN1Cc1cccc(OC/C=C\CNc2c(N)c(=O)c2=O)c1` (stereo not drawn) [Ex. 33, 1-amino-2-[4-{3-<1-(2-methylpiperidino)-methyl>phenoxy}-cis-2-butenylamino]-1-cyclobutene-3,4-dione] were 70%, 0.4 mg/kg, 18.0 and 0.166 µM.
For the molecule `CC1CCCN(Cc2cccc(OC/C=C\CNc3c(N)c(=O)c3=O)c2)C1` (stereo not drawn) [Ex. 34, 1-amino-2-[4-{3-<1-(3-methylpiperidino)methyl>phenoxy}-cis-2-butenylamino]-1-cyclobutene-3,4-dione], the inhibition in vivo at 0.2 mg/kg in series [1] (setting [6]) was 100%. Further, the ED50 in series [3] (setting [5]) is 0.17 mg/kg. In series [3] (intraduodenal, rat), the “Efficacy Ratio relative to Cimetidine” value came out at 42.1. Besides, on Histamine H2-Receptor, the Kb is 0.0708 µM.
On to `CC1CCN(Cc2cccc(OC/C=C\CNc3c(N)c(=O)c3=O)c2)CC1` [Ex. 35, 1-amino-2-[4-{3-<1-(4-methylpiperidino)methyl>phenoxy}-cis-2-butenylamino]-1-cyclobutene-3,4-dione], for which the inhibition in vivo at 0.2 mg/kg in series [1] (setting [6]) came out at 98%. Moreover, the 50% effective dose (ED50) in series [3] (setting [5]) came out at 0.38 mg/kg. Moreover, the “Efficacy Ratio relative to Cimetidine” value in series [3] (intraduodenal, rat) amounted to 18.9. For the same molecule, the Kb at Histamine H2-Receptor is 0.263 µM.
In the case of `O=c1c(NC/C=C\COc2cccc(CN3CCCCC3)c2)c(NCc2cccnc2)c1=O` [Ex. 37, 1-(3-pyridylmethylamino)-2-[4-<3-(1-piperidinomethyl)phenoxy>-cis-2-butenylamino]-1-cyclobutene-3,4-dione], the inhibition in vivo at 0.2 mg/kg in series [1] (setting [6]) amounted to 90%. For the same molecule, in series [3] (setting [5]), the ED50 is 0.074 mg/kg. Moreover, the “Efficacy Ratio relative to Cimetidine” value in series [3] (intraduodenal, rat) is recorded as 97.3. In addition, at Histamine H2-Receptor, the Kb is 0.646 µM.
As for `O=c1c(NC/C=C\COc2cccc(CN3CCCCC3)c2)c(NCc2ccncc2)c1=O` [Ex. 38], in series [1] (setting [6]), the inhibition in vivo at 0.2 mg/kg came to 98%. Moreover, the ED50 in series [3] (setting [5]) turned out to be 0.04 mg/kg. Moreover, the “Efficacy Ratio relative to Cimetidine” value in series [3] (intraduodenal, rat) came to 180.0. In addition, on Histamine H2-Receptor, the Kb is 0.589 µM.
